Test results published in article PMC9537541, “Synthesis and anticancer activity of new benzensulfonamides incorporating s-triazines as cyclic linkers for inhibition of carbonic anhydrase IX” (Scientific Reports, 2022).
“Also recorded” adds a separate entry of the source. Values belong to the molecule of their own block, whether it stands above or below them.

Columns and labels:
[1] = system: MDA-MB-468 breast cancer cells; experiment: cell cycle analysis by flow cytometry; type: cell-based; conditions: 24 h at IC50 concentration (3.99 µM)
From the text: Cell cycle is composed of four distinct phases: G1, S, G2, and M[45]. Flow cytometry analysis of DNA ploidy in MDA-MB-468 breast cancer cells was used to evaluate the influence of compound 12d on normal cell cycle progression. […] Apoptosis and DNA fragmentation are possible mechanisms for 12d-induced cancer cell death based on the observed high increase in a pre-G1 cell population by 20 fold compared to the control.
The treated cells were centrifuged and maintained in ice-cold ethanol (70%) before being washed again with PBS and then re-suspended in RNase ([…]) followed by staining with 40 µg/mL PI, and analyzed by flow cytometry technique using a FACS Calibur (Becton Dickinson,BD, USA). Cell cycle distribution were calculated via CellQuest software 5.1 (Becton Dickinson),[63].

[2] = system: normal human embryonic kidney cells (HEK-293); experiment: normal cell line cytotoxicity (MTT), HEK-293; type: cell-based
Description: All data was collected in triplicate, and IC50 values were calculated as the average of three separate trials.

[3] = system: Leukemia (SR); experiment: NCI single dose SRB screen, SR; type: cell-based; conditions: 48 h, 10^−5 M single dose, read-out: GI% Leukemia (SR)
Description: (§1) Target compounds in series (A) and (B), were submitted to the National Cancer Institute (NCI) Developmental Therapeutic Program (www.dtp.nci.nih.gov), where they have been assessed, in vitro for their anticancer activity. Two series (A) and (B), were screened in a single dose (10 µM) versus full panel composed of 60 cancer cell lines, in accordance with protocol of drug evaluation branch, NCI, Bethesda. Sulforhodamine B (SRB) colorimetric assay was used to determine cell growth and viability,[40].
(§2) Protocol of Drug Evaluation Branch, NCI, Bethesda, was adopted in the antitumor assay. Assessment of cell growth and viability was carried out utilizing SRB assay and 48 h drug exposure protocol as previously reported,[40].

[4] = molecular target: T1, hCA IX (Homo sapiens, UniProt Q16790); experiment: stopped-flow CO2 hydrase assay, hCA IX; type: biochemical; conditions: for Selectivity index (SI) I/IX: hCA IX over off-target hCA I; for Selectivity index (SI) II/IX: hCA IX over off-target hCA II; for Ki: stopped flow technique, mean from 3 different assays
T1 construct: made in house
Description: (§3) Target compounds of series (A) and (B) were screened as inhibitors concerning the physiologically relevant hCAs; cytosolic isoforms (hCA I and II) in addition to the transmembrane tumor related isoforms (hCA IX and XII) via a stopped-flow assay of carbonic anhydrase catalyzed CO2 hydration. Acetazolamide (AAZ), CA I drug, was also incorporated in the assays as a standard drug. […] Four CA isoforms inhibition activity was measured by assaying CA catalyzed CO2 hydration via an applied photophysics stopped-flow instrument. PRISM 3 and the Cheng-prusoff equation were used to determine the inhibition constant by non-linear least square methods as reported, and represent the mean from three different determination at least. All tested carbonic anhydrase isoforms were recombinant proteins prepared in lab as described earlier,[57].

[5] = molecular target: T2, hCA I (Homo sapiens, UniProt P00915); experiment: stopped-flow CO2 hydrase assay, hCA I; type: biochemical; conditions: stopped flow technique, mean from 3 different assays
T2 construct: made in house
Description: as §3

[6] = system: leukemia (RPMI-8226); experiment: NCI single dose SRB screen, RPMI-8226; type: cell-based; conditions: 10 µM single dose
Description: as §1, §2

[7] = system: MDA-MB-468 breast cancer cells; experiment: Annexin V-FITC/propidium iodide apoptosis assay; type: cell-based
Description: Apoptosis of tumor cells is the principal therapeutic objective of antiproliferative agents. The apoptotic induction potential of 12d in MDA-MB-468 cells were assessed using the Annexin V/propidium iodide double staining assay,[48].
Cells apoptosis further analyzed by measuring phosphatidylserine externalization using V-FITC/PI apoptosis detection kit (BD Biosciences, USA) according manufacturer's instructions, as reported,[62].

[8] = molecular target: T3, hCA II (Homo sapiens, UniProt P00918); experiment: stopped-flow CO2 hydrase assay, hCA II; type: biochemical; conditions: stopped flow technique, mean from 3 different assays
T3 construct: made in house
Description: as §3

[9] = system: leukemia (CCRF-CM); experiment: anti-proliferative activity under hypoxic condition (MTT), CCRF-CM; type: cell-based
Description: (§4) All cells were incubated in hypoxic atmosphere (1% O2, 5% CO2, and 94%N2) and maintained at 37 °C. All procedures to determine compounds cytotoxicity were accomplished using MTT assay as reported,[59],[60].

[10] = system: caspase 3; experiment: Western blot of caspase 3 in MDA-MB-468 cells; type: cell-based
From the text: (§5) Caspases, cysteine-containing aspartic acid-specific proteases, afford essential factors in cell networks that control and regulate death of the cell. Caspase-3 is a vital executioner protease which is triggered by cascade of initiator caspases such as caspase-9 [49]. This study was further extended to explore the apoptosis mechanism of compound 12d upon breast cancer, MDA-MB-468, cells by measuring the expression of apoptosis biomarkers (cleaved caspase 3 and caspase 9) via Gel electrophoresis and immune-blot analysis of proteins (Western Blot) using β-actin to normalize the loading. […] Accordingly, compound 12d have the ability to induce apoptosis in MDA-MB-468 cancer cells probably by pathways involving both caspase3 and caspase9.
(§6) MDA-MB-468 cells, were harvested on dishes of cell culture and treated for 24 h with compound 12d. An equal amount of protein transferred to PVDF membranes after separated by SDS-PAGE (5–15%). Skim milk with concentration 5% was used to block the blotted membranes for 1 h before being incubated with the desired primary antibodies at 37 °C for 1 h. Colorimetric technique was used to visualize immune reactive bands using Geldoc-it, UVP, England. To quantify equal loading, membrane was reseeded with β-actin antibody.
(§7) Eelectrophoresed proteins on SDS-PAGE were transferred to a Hybond™ nylon membrane (GE Healthcare) via TE62 Standard transfer tank with Cooling Chamber (Hoefer Inc. and incubate for 1 hour at room temperature in Blocking Solution. Additionally, β-actin (abcam, ab8227) was applied as housekeeping protein.
(§8) - Membrane was incubated the overnight at 4°C in antibody solution containing caspase isoform (Cell Signalling) separately for each antibody.
(§9) - Colorimetric technique was used to visualize immune reactive bands using Geldoc-it, UVP, England. Each experiment was run in triplicate.

[11] = system: breast cancer (T-47D); experiment: NCI single dose SRB screen, T-47D; type: cell-based; conditions: 10 µM single dose
Description: as §1, §2

[12] = system: Breast cancer (MDA-MB-468); experiment: anti-proliferative activity under hypoxic condition (MTT), MDA-MB-468; type: cell-based
Description: as §4

[13] = system: Breast cancer (MDA-MB-468); experiment: NCI single dose SRB screen, MDA-MB-468; type: cell-based; conditions: for inhibition at 10 µM: Homo sapiens, MDA-MB-468, 48 h, 10^−5 M single dose, 48 h, SRB, read-out: GI% Breast cancer (MDA-MB-468)
Description: as §1, §2

[14] = system: caspase 9; experiment: Western blot of caspase 9 in MDA-MB-468 cells; type: cell-based
From the text: as §5, §6, §7, §8, §9

[15] = molecular target: T4, hCA XII (Homo sapiens, UniProt O43570); experiment: stopped-flow CO2 hydrase assay, hCA XII; type: biochemical; conditions: for Selectivity index (SI) I/XII: hCA XII over off-target hCA I; for Selectivity index (SI) II/XII: hCA XII over off-target hCA II; for Ki: stopped flow technique, mean from 3 different assays
T4 construct: made in house
Description: as §3

[16] = system: Leukemia (CCRF-CEM); experiment: NCI single dose SRB screen, CCRF-CEM; type: cell-based; conditions: normoxic condition (5% CO2, 95% air at 37 °C), NCI protocol
Description: as §1, §2

[17] = system: CNS cancer (SNB-75); experiment: NCI single dose SRB screen, SNB-75; type: cell-based; conditions: Homo sapiens, SNB-75, 48 h, 10^−5 M single dose, read-out: GI% CNS cancer (SNB-75)
Description: as §1, §2

[18] = system: Renal cancer (UO-31); experiment: NCI single dose SRB screen, UO-31; type: cell-based; conditions: Homo sapiens, UO-31, 48 h, 10^−5 M single dose, read-out: GI% Renal cancer (UO-31)
Description: as §1, §2

[19] = hypoxic condition (1% O2, 5% CO2, and 94%N2 at 37 °C)
[20] = Western blot, β-actin normalised

T4 sequence (O43570 25-354): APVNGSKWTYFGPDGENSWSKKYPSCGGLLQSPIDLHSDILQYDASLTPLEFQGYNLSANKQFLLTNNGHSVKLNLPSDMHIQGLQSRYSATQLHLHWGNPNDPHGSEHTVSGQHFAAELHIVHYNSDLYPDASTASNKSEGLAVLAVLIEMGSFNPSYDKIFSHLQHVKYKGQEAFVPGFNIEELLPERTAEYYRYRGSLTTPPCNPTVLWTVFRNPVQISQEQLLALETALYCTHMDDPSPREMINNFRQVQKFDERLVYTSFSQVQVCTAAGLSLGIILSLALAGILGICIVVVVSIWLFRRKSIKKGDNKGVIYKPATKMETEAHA
T2 sequence (P00915 whole entry): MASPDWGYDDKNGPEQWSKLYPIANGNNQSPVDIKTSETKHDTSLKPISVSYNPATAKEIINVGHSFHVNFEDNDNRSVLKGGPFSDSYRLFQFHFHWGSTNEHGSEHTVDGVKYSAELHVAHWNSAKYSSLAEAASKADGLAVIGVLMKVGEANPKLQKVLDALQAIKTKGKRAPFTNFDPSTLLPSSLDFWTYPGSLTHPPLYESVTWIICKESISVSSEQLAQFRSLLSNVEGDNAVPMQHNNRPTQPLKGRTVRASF

Selectivity index (SI) I/IX [4]: 3
Selectivity index (SI) II/IX [4]: 2
Ki [4]: 190 nM
Ki [5]: 577 nM
Ki [8]: 364 nM
IC50 ([9]; hypoxic conditions (1%O2, 5% CO2 and 94% N2), mean ± S.D. of three experiments): 4.51 ± 0.24 µM
IC50 ([12]; Homo sapiens, MDA-MB-468, hypoxic conditions (1%O2, 5% CO2 and 94% N2), mean ± S.D. of three experiments): 3.99 ± 0.21 µM
Selectivity index (SI) I/XII [15]: 3
Selectivity index (SI) II/XII [15]: 2
Ki [15]: 0.188 µM
SMILES: CN(C)c1ccc(/C=C(\C#N)c2nc(N)nc(Nc3ccc(S(N)(=O)=O)cc3)n2)cc1 [Compound 12d, 4-({4-Amino-6-[(1E)-1-cyano-2-[4-(dimethylamino)phenyl]eth-1-en-1-yl]-1,3,5-triazin-2-yl}amino)benzene-1-sulfonamide]
cell cycle arrest phases [1]: G0-G1 and S phases
increase in pre-G1 cell population compared to the control [1]: 20 fold
IC50 ([2]; Homo sapiens, HEK293, normal cells, mean ± SD of three independent experiments): 68.1 ± 3.72 µM
safety index relative to staurosporine ([2]; cancer versus normal cells): about twofold
inhibition at 10 µM [3]: ≥ 50%
GI% leukemia (RPMI-8226) [6]: ≥ 50%
total increase in apoptotic cells compared to the control ([7]; annexin V-FITC positive cells): about 20 fold
apoptotic cells in late apoptosis phase (UR) ([7]; annexin V-FITC/PI, control 0.11%): 17.66%
apoptotic cells in early stage (LR) ([7]; annexin V-FITC/PI, control 0.39%): 2.76%
GI% Hypoxia CCRF-CM [9, 19]: 55.82%
cleaved caspase 3 expression relative to the control [10, 20]: increasing the level; also recorded: significant activation
Expression level of procaspase 3, Lane %, Mean ± SD ([10]; treated 24 h, three replicates, control 42.52 ± 0.013): 27.81 ± 0.008%
Expression level of cleaved caspase 3, Lane %, Mean ± SD, first line ([10]; treated, first of two band lines (17/19 KDa), control 4.91 ± 0.017): 6.88 ± 0.008%
Expression level of cleaved caspase 3, Lane %, Mean ± SD, second line ([10]; treated, second of two band lines (17/19 KDa), control 13.59 ± 0.0): 22.42 ± 0.0%
GI% breast cancer (T-47D) [11]: ≥ 50%
GI% Hypoxia MDA-MB-468 [12, 19]: 59.38%
inhibition at 10 µM [13]: ≥ 50%
GI% Normoxia MDA-MB-468 ([13]; normoxic condition (5% CO2, 95% air at 37 °C), NCI protocol): 61.39%
cleaved caspase 9 expression relative to the control [14, 20]: increasing the level; also recorded: significant activation
Expression level of procaspase 9, Lane %, Mean ± SD ([14]; treated 24 h, three replicates, control 40.53 ± 0.008): 25.30 ± 0.004%
Expression level of cleaved caspase 9, Lane %, Mean ± SD, first line ([14]; treated, first of two band lines (35/37 KDa), control 6.75 ± 0.008): 6.04 ± 0.012%
Expression level of cleaved caspase 9, Lane %, Mean ± SD, second line ([14]; treated, second of two band lines (35/37 KDa), control 14.32 ± 0.004): 21.59 ± 0.004%
GI% Normoxia CCRF-CM [16]: 52.61%

Selectivity index (SI) I/IX [4]: 23.2
Selectivity index (SI) II/IX [4]: 1.3
Ki [4]: 295 nM
Ki [5]: 6840 nM
melting point: 268 to 270 °C
Ki [8]: 384 nM
Selectivity index (SI) I/XII [15]: 1.5
Selectivity index (SI) II/XII [15]: 0.1
Ki [15]: 4.65 µM
SMILES: CC1(C)N=C(N)N=C(Nc2ccc(S(N)(=O)=O)cc2)N1 [Compound 7a, 4-[(4-Amino-6,6-dimethyl-1,6-dihydro-1,3,5-triazin-2-yl)amino]benzene-1-sulfonamide]
inhibition at 10 µM [3]: ≤ 10%
inhibition at 10 µM [17]: ≤ 10%
inhibition at 10 µM [13]: ≤ 10%
inhibition at 10 µM [18]: 12%

Selectivity index (SI) I/IX [4]: 0.1
Selectivity index (SI) II/IX [4]: 2.5
Ki [4]: 1420 nM
Ki [5]: 94.4 nM
melting point: 264 to 266 °C
Ki [8]: 3620 nM
Selectivity index (SI) I/XII [15]: 0.01
Selectivity index (SI) II/XII [15]: 0.5
Ki [15]: 7.42 µM
SMILES: NC1=NC2(CCCC2)NC(Nc2ccc(S(N)(=O)=O)cc2)=N1 [Compound 8a, 4-({9-Amino-6,8,10-triazaspiro[4.5]deca-7,9-dien-7-yl}amino)benzene-1-sulfonamide]
inhibition at 10 µM [3]: ≤ 10%
inhibition at 10 µM [17]: 14%
inhibition at 10 µM [13]: ≤ 10%
inhibition at 10 µM [18]: 17%
